As usually defined, the AUC(0-inf) is the area under the concentration-time curve extrapolated to infinity. High values mean high exposure, low ones low exposure. Broadly, the Cmax is the highest concentration seen after dosing. A word on the Tmax: it is the time from dosing to the highest level. Broadly, the half-life is how long it takes for the measured level to halve.

Consider four compounds from patent US12583855B2, “RET selective inhibitor, preparation method therefor and use thereof” (SHOUYAO HOLDINGS (BEIJING) CO., LTD., priority 2019, dated 2026).

Substitutions are numbered along the chain they refer to.

The nature of data set [1]: Pharmacokinetic data of compounds in male SD rats. In kind it is in vivo. The settings on record: rat, po, intragastric, 5 mg/kg, suspension MC 0.5%, plasma. The method, then: 6. Pharmacokinetic Data of Compounds
Male SD rats (Beijing Vital River Laboratory Animal Technology Co., Ltd) were divided into groups. 3 in each group, received intragastric administration with the suspension of the test sample (5 mg/kg, suspensions MC 0.5%), respectively. Animals were fasted overnight prior to the experiment from 10 h before dosing to 4 h after dosing. Blood was collected 0.25, 0.5, 1, 2, 4, 6, 8, and 24 h after administration, respectively. After isoflurane anesthesia using a small animal anesthesia machine, 0.3 mL of whole blood samples was taken through the fundus venous plexus, placed in a heparin anticoagulant tube, and were centrifuged at 4° C. 4000 rpm for 5 min plasma was transferred to the centrifuge tube, and stored at −80° C. until analysis. Samples in the plasma were extracted using protein precipitation and the extracts were analyzed by LC/MS.

For a further data set, the target named is T1, RET^V804M (Homo sapiens, UniProt P07949, V804M).
T1 construct: GST-RET^V804M (658-1114 aa, final concentration of 0.02 nM)
T1 sequence (P07949 658-1114 V804M): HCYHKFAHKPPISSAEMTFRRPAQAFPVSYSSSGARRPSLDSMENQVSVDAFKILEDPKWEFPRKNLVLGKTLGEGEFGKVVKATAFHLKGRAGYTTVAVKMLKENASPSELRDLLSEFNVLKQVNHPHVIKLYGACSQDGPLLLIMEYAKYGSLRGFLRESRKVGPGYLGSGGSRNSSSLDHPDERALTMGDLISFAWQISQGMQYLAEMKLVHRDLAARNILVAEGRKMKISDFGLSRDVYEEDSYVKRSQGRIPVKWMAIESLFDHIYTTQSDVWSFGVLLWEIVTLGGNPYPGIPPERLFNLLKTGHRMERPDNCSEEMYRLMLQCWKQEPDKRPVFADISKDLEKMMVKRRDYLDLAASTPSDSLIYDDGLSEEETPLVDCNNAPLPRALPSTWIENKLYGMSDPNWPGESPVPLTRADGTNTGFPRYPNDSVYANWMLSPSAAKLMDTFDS
Put plainly: In vitro enzymatic activity assay on RET^V804M (HTRF). In kind it is biochemical. To be noted: GST-RET^V804M (658-1114 aa) 0.02 nM, ATP 1.5 μM.

For a further data set, the target named is T2, RET^WT (Homo sapiens, UniProt P07949).
T2 construct: GST-RET^WT (658-1114 aa, final concentration of 0.5 nM)
T2 sequence (P07949 658-1114): T1 sequence (P07949 658-1114 V804M) with M147V
Kind of data set: In vitro enzymatic activity assay on RET^WT (HTRF). To be noted: GST-RET^WT (658-1114 aa) 0.5 nM, ATP 25 μM. In kind it is biochemical. An outline of the steps: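 Reaction run 2 h at 23 °C in HEPES pH 7.5 buffer with Na3VO4, MgCl2, DTT, Tween 20 and BSA; compounds tested at 7 concentrations (5-fold serial dilution in DMSO from 0.2 mM stock). HTRF detection with TK antibody and streptavidin-XL665; IC50 from curve fitting.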

A further data set deals with KIF5B-RET/HEK293T cells. Put plainly: Cell proliferation activity in KIF5B-RET/HEK293T cells (Cell-Titer Glo). In kind it is cell-based. The settings on record: Homo sapiens, HEK-293T, 72 h, read-out: KIFSB-RETV^804M/293T (Cell)IC50.
The test system of the next data set is TT cells. Put plainly: TT cell proliferation activity (Cell-Titer Glo). The settings on record: TT human thyroid carcinoma cells, 120 h. In kind it is cell-based. An outline of the steps:
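Human thyroid carcinoma TT cells, plated 5000/well a day prior, were exposed 120 h at 37 °C to ten 3-fold compound dilutions (10 mM DMSO stock top). Cell-Titer Glo luminescence gave IC50 for proliferation inhibition.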

Another data set concerns the target VEGFR2 (Homo sapiens, UniProt P35968). Put plainly: In vitro enzymatic activity assay on VEGFR2 (HTRF). Format: biochemical. The settings on record: GST-VEGFR2 0.1 nM, ATP 2.5 μM. An outline of the steps: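 GST-VEGFR2 (0.1 nM final) with 2.5 μM ATP and 1 μM TK peptide substrate in HEPES pH 7.5 buffer with Mg²⁺/Mn²⁺, 1.5 h at 23 °C. HTRF read-out (665/620 nm ratio) after adding TK antibody and streptavidin-XL665. IC50 from 7-point, 5-fold dilution series.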
A general note: Time-resolved FRET reads energy transfer from a long-lived donor to a nearby acceptor.

VEGFR2, sequence (P35968 20-1356): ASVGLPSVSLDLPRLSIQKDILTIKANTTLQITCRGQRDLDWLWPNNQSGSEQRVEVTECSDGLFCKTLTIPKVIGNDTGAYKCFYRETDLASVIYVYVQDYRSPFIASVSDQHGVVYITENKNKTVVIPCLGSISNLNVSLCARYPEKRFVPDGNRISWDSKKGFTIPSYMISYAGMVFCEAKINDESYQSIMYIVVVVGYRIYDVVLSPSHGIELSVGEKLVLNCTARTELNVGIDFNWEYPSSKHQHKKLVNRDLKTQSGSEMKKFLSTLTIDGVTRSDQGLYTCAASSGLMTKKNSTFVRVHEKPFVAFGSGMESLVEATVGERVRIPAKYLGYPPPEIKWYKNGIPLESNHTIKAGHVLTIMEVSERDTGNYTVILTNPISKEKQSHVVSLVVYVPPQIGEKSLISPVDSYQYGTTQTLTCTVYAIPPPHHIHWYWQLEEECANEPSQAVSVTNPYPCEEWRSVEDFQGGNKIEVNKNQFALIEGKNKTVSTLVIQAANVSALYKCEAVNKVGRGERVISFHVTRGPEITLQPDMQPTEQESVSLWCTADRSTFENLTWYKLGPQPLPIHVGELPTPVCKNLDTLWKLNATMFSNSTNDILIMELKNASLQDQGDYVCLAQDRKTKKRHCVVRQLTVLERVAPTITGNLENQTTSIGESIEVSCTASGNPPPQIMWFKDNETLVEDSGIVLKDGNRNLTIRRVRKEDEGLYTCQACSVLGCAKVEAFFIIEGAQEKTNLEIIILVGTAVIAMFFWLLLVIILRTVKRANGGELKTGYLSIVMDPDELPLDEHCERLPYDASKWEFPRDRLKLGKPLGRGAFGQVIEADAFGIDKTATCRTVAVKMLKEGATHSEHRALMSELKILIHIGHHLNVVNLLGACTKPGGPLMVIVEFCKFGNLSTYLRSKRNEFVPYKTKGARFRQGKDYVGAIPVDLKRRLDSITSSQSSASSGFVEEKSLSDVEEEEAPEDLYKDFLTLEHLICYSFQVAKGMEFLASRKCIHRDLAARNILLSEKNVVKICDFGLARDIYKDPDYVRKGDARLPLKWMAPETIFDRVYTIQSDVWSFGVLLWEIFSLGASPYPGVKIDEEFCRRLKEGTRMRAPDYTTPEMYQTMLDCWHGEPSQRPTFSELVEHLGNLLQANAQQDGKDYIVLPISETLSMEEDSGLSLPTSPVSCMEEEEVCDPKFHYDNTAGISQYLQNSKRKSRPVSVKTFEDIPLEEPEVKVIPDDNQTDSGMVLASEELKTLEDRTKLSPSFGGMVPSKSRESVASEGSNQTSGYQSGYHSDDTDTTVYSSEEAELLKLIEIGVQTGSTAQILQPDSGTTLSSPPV

Consider `CSc1ccc(CN2C3CC2CN(c2ccc(-c4cc(-c5cnn(C(F)F)c5)cn5ncc(C#N)c45)cn2)C3)cn1` [Example 60, 6-(1-(difluoromethyl)-1Hpyrazol-4-yl)-4-(6-(6-((6-(methylthio)pyridin-3-yl)methyl)-3,6-diazabicyclo[3.1.1]heptan-3-yl)pyridin-3-yl)pyrazolo[1,5-a]pyridine-3-carbonitrile], for which the AUC(0-inf) in data set [1] is 14700 ng·h/mL. Moreover, the highest level in data set [1] (Cmax) was 1140 ng/mL. In addition, the Tmax in data set [1] was 1.5 h. The compound also gave a half-life in data set [1] of 7.45 h. Further, the IC50 at RET^V804M was found to be 0.593 nM; against RET^WT, 0.103 nM; in the data set on KIF5B-RET/HEK293T cells, 281 nM; with TT cells it was 18.5 nM; at VEGFR2, 3.1 nM.
For `COc1ccc(CN2C3CC2CN(c2ccc(-c4cc(N5CC(C)(O)C5)cn5ncc(C#N)c45)cn2)C3)cn1` [Example 7, 6-(3-hydroxy-3-methylazetidin-1-yl)-4-(6-(6-((6-methoxypyridin-3-yl)methyl)-3,6-diazabicyclo[3.1.1]heptan-3-yl)pyridin-3-yl)pyrazolo[1,5-a]pyridine-3-carbonitrile], in data set [1], the AUC(0-inf) is 12600 ng·h/mL, the concentration peaked (Cmax) at 1460 ng/mL, the time of peak concentration (Tmax) was 2 h and the half-life is 3.53 h. Moreover, the IC50 against RET^WT was 0.601 nM. Also, the IC50 in the data set with KIF5B-RET/HEK293T cells worked out at 99.1 nM. The compound further showed an IC50 in the data set with TT cells of 7.41 nM. On VEGFR2, the IC50 came out at 9.67 nM.
With `CSc1ccc(CN2CCN(c3ccc(-c4cc(-c5cnn(C)c5)cn5ncc(C#N)c45)cn3)CC2)nc1` [Example 9, 6-(1-methyl-1Hpyrazol-4-yl)-4(6-(4-((5-(methylthio)pyridin-2-yl)methyl)piperazin-1-yl)pyridin-3-yl)pyrazolo[1,5-a]pyridine-3-carbonitrile], in data set [1], the AUC(0-inf) was found to be 8290 ng·h/mL. In data set [1], this compound came in with a Cmax of 1660 ng/mL. Also, the Tmax in data set [1] was determined as 2.17 h. This compound also gave a half-life in data set [1] of 2.02 h. The IC50 against RET^V804M is 1.22 nM; against RET^WT, 0.565 nM; with KIF5B-RET/HEK293T cells, 371 nM; with TT cells, 37.3 nM; against VEGFR2 it was 10 nM.
Regarding `COCC1=C(C(=O)N2CCN(c3ccc(-c4cc(-c5cnn(C)c5)cn5ncc(C#N)c45)cn3)CC2)CCC1` [Example 12, 4-(6-(4-(2-(methoxymethyl)cyclopent-1-ene-1-carbonyl)piperazin-1-yl)pyridin-3-yl)-6-(1-methyl-1Hpyrazol-4-yl)pyrazolo[1,5-a]pyridine-3-carbonitrile], the IC50 at RET^V804M amounted to 1.47 nM; on RET^WT it was 0.65 nM; with KIF5B-RET/HEK293T cells it was 141 nM; with TT cells, 6.3 nM; against VEGFR2, 14.4 nM.
